Laboratory results as given in paper PMC8474115 (Journal of Medicinal Chemistry, 2021).
Where a name gives a salt, the structure may show the parent alone. Read-outs that look alike come from different tables or passages of the source.

Assays:
hD2L = hD2L (Homo sapiens, UniProt P14416); settings: D2R
Protocol: For membrane preparation, cells after reaching 90% confluence, were washed with phosphate-buffered saline (PBS), and pelleted by centrifugation (200 × g) in PBS containing 0.1 mM EDTA and 1 mM dithiothreitol.
The total reaction volume was 200 μL. The incubation process was terminated by filtration through UniFilter-96 (PerkinElmer) plates with the FilterMate Universal Harvester (PerkinElmer, #C961962), and radioactivity retained on the filters was quantified on a MicroBeta counter for radiometric detection (PerkinElmer). […] To evaluate the level of nonspecific signal 10 μM of 5-HT for 5-HT1AR and 5-HT7R, 20 μM of mianserin for 5-HT2AR, 10 μM of methiothepine for 5-HT6R and 10 μM of haloperidol for D2LR were used. […] The acquired results were presented as the mean of at least two independent experiments.

Sigma σ1 = target: T1, Sigma σ1 (Homo sapiens, UniProt Q99720); assay: Eurofins SafetyScreen panel; type: binding
T1 construct: Eurofins (contract assay) 278110

Cathepsin G = target: T2, Cathepsin G (Homo sapiens, UniProt P08311); assay: Eurofins SafetyScreen panel; type: biochemical
T2 construct: Eurofins

Adenosine A2A = target: T3, Adenosine A2A (Homo sapiens, UniProt P29274); assay: Eurofins SafetyScreen panel; type: binding
T3 construct: Eurofins (contract screening, SafetyScreen panel) PP223

Serotonin 5-HT7 = target: T4, Serotonin 5-HT7 (Homo sapiens, UniProt P34969); assay: Eurofins SafetyScreen panel; type: binding
T4 construct: Eurofins (contract assay) 272320

CYP2D6 = CYP2D6 (Homo sapiens, UniProt P10635); assay: Cytochrome P450 inhibition (Eurofins); settings: at 10 μM; listed as 17, 10 µM
GABA Transporter = target: T5, GABA Transporter (Rattus norvegicus, UniProt P23978); assay: Eurofins SafetyScreen panel; type: binding
T5 construct: Eurofins (contract assay)

[1] = target: T6, Platelet Activating Factor (PAF) (Homo sapiens, UniProt P25105); assay: Eurofins SafetyScreen panel; type: binding
T6 construct: Eurofins (contract assay)

CYP2C9 = CYP2C9 (Homo sapiens, UniProt P11712); assay: Cytochrome P450 inhibition (Eurofins); settings: at 10 μM; listed as 17, 10 µM
Serotonin 5-HT2A = target: T7, Serotonin 5-HT2A (Homo sapiens, UniProt P28223); assay: Eurofins SafetyScreen panel; type: binding
T7 construct: Eurofins (contract assay)

CYP2C19 = CYP2C19 (Homo sapiens, UniProt P33261); assay: Cytochrome P450 inhibition (Eurofins)
5-HT2B receptors = target: T8, 5-HT2B receptors (Homo sapiens, UniProt P41595); assay: Agonist effect at 5-HT2B receptors (HTRF, Eurofins); type: cell-based; settings: 1 μM
T8 construct: Eurofins, France
Protocol: Experiment was performed in duplicate at Eurofins, France.

Chemokine CCR1 = target: T9, Chemokine CCR1 (Homo sapiens, UniProt P32246); assay: Eurofins SafetyScreen panel; type: binding
T9 construct: purchased Eurofins (Panlabs) SafetyScreen87 Panel

CYP1A2 = CYP1A2 (Homo sapiens, UniProt P05177); assay: Cytochrome P450 inhibition (Eurofins)
[2] = target: Ca Channel L-Type, Phenylalkylamine (Rattus norvegicus, UniProt P22002); assay: Eurofins SafetyScreen panel; type: binding
Adrenergic β1 = target: T10, Adrenergic β1 (Homo sapiens, UniProt P08588); assay: Eurofins SafetyScreen panel; type: binding
T10 construct: Eurofins (contract screening, SafetyScreen panel) PP223

Serotonin 5-HT2C = target: T11, Serotonin 5-HT2C (Homo sapiens, UniProt P28335); assay: Eurofins SafetyScreen panel; type: binding
T11 construct: Eurofins (contract assay)
T11 sequence (P28335 33-458): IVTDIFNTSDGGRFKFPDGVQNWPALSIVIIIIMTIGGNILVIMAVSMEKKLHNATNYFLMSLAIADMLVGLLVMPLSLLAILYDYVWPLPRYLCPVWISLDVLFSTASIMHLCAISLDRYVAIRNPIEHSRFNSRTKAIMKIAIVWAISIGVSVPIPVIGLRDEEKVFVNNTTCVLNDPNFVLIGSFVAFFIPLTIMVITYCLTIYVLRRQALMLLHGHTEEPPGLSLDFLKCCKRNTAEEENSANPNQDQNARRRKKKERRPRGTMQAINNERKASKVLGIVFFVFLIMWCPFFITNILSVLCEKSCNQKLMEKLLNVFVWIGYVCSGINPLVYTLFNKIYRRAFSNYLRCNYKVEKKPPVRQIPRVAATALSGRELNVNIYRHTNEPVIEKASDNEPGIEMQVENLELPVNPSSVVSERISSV

Adrenergic α2B = target: T12, Adrenergic α2B (Homo sapiens, UniProt P18089); assay: Eurofins SafetyScreen panel; type: binding
T12 construct: Eurofins (contract screening, SafetyScreen panel) PP223
T12 sequence (P18089 1-450): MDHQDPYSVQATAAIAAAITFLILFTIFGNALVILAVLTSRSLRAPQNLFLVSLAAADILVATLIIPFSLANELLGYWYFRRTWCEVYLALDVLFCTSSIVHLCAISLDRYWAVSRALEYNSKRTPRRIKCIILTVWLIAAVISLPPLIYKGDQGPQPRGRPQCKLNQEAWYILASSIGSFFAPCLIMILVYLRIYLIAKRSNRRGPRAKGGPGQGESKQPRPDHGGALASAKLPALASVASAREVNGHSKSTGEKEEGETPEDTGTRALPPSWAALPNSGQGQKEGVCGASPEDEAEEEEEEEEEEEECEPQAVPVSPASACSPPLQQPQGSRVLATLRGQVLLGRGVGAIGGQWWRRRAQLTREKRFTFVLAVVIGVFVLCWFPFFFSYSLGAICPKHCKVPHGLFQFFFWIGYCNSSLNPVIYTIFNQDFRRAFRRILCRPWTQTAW

[3] = target: T13, Glutamate Metabotropic, mGlu5 (Homo sapiens, UniProt P41594); assay: Eurofins SafetyScreen panel; type: binding
T13 construct: purchased Eurofins (Panlabs) SafetyScreen87 Panel

CYP3A4 = CYP3A4 (Homo sapiens, UniProt P08684); assay: Cytochrome P450 inhibition (Eurofins)
Adrenergic α1B = target: T14, Adrenergic α1B (Rattus norvegicus, UniProt P15823); assay: Eurofins SafetyScreen panel; type: binding
T14 construct: Eurofins (contract screening, SafetyScreen panel) PP223

Dopamine D1 = target: T15, Dopamine D1 (Homo sapiens, UniProt P21728); assay: Eurofins SafetyScreen panel; type: binding
T15 construct: purchased Eurofins (Panlabs) SafetyScreen87 Panel

[4] = read-out: %inh, 10 μM, additional batch

T1 sequence (Q99720 whole entry): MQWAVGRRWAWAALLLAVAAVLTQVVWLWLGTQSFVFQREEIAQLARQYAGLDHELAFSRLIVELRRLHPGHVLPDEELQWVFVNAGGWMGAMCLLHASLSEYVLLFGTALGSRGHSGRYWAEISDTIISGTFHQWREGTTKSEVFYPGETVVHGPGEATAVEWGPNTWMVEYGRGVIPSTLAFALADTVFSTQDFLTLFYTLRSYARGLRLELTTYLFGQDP
T4 sequence (P34969 whole entry): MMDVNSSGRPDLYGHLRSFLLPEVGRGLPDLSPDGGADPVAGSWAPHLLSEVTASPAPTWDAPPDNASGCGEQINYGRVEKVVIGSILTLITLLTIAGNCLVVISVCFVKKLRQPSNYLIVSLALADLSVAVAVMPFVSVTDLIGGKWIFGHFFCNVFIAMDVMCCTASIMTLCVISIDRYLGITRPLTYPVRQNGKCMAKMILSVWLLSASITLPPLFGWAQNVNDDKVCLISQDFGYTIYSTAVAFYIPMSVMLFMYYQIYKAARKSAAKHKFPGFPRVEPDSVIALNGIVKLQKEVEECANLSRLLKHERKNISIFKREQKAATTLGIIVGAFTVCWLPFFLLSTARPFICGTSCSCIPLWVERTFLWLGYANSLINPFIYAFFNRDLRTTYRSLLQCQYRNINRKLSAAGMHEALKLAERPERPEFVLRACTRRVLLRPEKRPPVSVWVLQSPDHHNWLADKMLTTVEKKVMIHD
T10 sequence (P08588 whole entry): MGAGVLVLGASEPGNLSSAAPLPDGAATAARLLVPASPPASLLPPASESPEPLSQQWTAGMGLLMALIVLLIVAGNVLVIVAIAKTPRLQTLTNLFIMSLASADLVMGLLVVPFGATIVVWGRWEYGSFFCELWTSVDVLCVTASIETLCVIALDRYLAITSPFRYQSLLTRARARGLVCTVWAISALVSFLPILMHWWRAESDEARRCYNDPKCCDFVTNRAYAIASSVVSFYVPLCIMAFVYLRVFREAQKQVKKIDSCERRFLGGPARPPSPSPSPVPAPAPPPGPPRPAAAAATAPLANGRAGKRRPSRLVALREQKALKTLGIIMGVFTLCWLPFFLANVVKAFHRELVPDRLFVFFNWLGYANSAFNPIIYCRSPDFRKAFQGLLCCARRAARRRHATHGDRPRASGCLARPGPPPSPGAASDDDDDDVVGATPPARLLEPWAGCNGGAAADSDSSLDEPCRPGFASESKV
Sequence of Ca Channel L-Type, Phenylalkylamine (P22002 whole entry): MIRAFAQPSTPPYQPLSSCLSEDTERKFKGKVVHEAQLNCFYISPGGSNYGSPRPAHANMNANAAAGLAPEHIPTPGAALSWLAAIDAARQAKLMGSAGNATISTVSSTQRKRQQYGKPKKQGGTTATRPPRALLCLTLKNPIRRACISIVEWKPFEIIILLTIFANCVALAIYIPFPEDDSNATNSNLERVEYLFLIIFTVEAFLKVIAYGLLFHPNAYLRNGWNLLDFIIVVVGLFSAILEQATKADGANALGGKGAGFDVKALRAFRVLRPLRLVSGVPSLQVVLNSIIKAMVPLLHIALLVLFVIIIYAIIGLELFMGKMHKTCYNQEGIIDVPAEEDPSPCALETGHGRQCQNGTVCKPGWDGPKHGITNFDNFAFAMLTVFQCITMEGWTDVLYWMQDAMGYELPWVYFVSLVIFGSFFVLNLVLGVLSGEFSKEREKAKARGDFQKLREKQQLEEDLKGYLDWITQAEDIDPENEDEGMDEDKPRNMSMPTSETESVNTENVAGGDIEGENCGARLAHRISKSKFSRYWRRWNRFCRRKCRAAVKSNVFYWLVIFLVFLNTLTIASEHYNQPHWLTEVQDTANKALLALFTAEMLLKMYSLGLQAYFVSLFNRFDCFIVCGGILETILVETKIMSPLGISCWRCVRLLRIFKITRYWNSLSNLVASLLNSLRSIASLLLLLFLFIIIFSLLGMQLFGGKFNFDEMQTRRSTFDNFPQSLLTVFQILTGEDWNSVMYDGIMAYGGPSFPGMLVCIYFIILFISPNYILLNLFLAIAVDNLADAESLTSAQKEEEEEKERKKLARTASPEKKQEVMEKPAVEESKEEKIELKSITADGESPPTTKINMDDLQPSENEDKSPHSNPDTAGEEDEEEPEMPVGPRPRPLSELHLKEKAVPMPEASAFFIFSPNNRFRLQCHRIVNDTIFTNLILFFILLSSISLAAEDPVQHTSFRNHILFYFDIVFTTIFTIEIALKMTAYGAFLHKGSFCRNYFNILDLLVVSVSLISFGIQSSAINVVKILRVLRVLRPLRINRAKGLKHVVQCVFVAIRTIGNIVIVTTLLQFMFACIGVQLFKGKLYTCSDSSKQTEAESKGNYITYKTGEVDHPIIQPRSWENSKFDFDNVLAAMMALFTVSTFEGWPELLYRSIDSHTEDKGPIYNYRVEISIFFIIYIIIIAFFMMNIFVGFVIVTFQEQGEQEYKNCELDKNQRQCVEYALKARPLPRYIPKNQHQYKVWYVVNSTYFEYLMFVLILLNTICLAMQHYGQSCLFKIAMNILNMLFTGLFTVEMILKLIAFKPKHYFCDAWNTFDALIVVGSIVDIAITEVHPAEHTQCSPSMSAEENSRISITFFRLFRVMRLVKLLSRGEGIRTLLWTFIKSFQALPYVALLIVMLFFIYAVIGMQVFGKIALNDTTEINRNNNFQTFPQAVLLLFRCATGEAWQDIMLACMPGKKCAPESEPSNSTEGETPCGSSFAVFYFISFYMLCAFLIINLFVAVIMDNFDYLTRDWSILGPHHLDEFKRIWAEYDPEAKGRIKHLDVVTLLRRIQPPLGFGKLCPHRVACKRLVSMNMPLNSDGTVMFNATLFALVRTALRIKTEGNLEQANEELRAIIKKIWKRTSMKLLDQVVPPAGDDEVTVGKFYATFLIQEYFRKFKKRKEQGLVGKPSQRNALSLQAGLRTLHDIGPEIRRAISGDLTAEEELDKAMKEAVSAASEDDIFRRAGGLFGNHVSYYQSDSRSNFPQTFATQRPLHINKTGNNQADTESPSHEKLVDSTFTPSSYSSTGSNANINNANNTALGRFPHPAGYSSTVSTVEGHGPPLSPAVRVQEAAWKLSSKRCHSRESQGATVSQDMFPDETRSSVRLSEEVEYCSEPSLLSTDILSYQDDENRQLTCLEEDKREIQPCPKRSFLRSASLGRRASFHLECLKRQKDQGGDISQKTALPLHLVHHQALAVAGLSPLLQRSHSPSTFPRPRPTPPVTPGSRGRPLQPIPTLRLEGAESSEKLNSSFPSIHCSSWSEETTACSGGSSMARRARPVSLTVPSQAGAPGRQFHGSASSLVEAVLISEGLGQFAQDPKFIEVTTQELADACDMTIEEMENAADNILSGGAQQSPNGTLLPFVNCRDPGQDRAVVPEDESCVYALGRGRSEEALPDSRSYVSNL
Sequence of CYP2D6 (P10635 whole entry): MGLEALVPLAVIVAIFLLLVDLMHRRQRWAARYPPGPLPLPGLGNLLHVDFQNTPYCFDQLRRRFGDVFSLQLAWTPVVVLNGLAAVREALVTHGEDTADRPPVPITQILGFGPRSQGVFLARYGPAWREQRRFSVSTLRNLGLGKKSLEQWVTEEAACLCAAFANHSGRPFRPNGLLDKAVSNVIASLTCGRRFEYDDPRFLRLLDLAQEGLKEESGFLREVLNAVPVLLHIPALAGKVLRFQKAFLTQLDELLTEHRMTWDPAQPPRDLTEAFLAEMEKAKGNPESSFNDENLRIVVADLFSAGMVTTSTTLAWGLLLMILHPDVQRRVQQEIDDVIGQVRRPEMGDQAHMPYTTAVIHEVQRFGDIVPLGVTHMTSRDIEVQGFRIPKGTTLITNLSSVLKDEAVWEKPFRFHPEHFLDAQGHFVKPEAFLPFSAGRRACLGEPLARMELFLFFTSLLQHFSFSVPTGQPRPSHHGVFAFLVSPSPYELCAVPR
T8 sequence (P41595 whole entry): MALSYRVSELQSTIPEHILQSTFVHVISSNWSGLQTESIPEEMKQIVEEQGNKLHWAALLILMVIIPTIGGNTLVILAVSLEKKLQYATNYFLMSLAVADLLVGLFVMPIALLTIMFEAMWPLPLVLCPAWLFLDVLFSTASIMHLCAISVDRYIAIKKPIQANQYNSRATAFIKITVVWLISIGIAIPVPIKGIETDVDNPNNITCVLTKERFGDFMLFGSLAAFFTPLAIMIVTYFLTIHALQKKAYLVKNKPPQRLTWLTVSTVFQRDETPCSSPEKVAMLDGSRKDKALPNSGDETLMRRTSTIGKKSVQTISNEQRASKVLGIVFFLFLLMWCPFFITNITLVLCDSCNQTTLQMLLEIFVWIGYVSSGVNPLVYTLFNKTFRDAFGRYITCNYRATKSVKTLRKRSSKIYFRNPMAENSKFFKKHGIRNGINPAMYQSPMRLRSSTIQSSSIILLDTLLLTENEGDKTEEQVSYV
T15 sequence (P21728 whole entry): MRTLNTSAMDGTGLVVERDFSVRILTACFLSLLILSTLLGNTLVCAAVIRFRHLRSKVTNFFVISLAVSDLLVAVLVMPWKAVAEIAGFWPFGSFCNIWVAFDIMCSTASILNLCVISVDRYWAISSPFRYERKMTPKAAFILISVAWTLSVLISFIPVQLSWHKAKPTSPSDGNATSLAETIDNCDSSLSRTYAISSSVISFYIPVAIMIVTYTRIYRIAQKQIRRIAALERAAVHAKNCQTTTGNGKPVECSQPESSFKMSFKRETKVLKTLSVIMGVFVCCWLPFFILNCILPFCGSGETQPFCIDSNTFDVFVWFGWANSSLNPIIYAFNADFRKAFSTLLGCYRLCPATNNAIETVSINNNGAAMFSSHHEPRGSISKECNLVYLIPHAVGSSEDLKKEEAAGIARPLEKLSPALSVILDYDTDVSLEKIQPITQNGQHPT
T2 sequence (P08311 21-255): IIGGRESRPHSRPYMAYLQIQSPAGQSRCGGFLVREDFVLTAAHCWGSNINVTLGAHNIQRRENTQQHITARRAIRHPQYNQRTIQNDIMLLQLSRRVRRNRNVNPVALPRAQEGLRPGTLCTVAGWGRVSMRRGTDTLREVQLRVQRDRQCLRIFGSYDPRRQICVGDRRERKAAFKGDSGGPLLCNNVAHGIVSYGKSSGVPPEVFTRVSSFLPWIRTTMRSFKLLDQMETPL

Structure (SMILES): O=S(=O)(c1cccc(F)c1)n1ccc2c(N3CCNCC3)nc3ccccc3c21 [FPPQ, 1-[(3-Fluorophenyl)sulfonyl]-4-(piperazin-1-yl)-1H-pyrrolo[3,2-c]quinoline dihydrochloride]
- Ki (hD2L): 4.39 µM
- IC50 (Sigma σ1): 8.33 µM
- Ki (Sigma σ1): 3.5 µM
- inhibition at 0.1 µM (Sigma σ1; read-out: %inh): 7%
- inhibition at 1 µM (Sigma σ1; read-out: %inh): 18%
- inhibition at 10 µM (Sigma σ1; read-out: %inh): 51%
- inhibition at 100 µM (Sigma σ1; read-out: %inh): 89%
- inhibition at 10 µM (Cathepsin G): -1%
- inhibition at 10 µM (Adenosine A2A): 1%
- inhibition at 0.1 µM (Serotonin 5-HT7; read-out: %inh, 0.1 μM): -1%
- inhibition at 1 µM (Serotonin 5-HT7; read-out: %inh, 1 μM): 21%
- inhibition at 10 µM (Serotonin 5-HT7; read-out: %inh, 10 μM): 65%
- inhibition at 10 µM (Serotonin 5-HT7; [4]): 67%
- inhibition at 100 µM (Serotonin 5-HT7; read-out: %inh, 100 μM): 93%
- cytochrome P450 inhibition 2D6 (CYP2D6): < 25% inh at 10 uM
- inhibition at 10 µM (GABA Transporter): 3%
- inhibition at 10 µM [1]: 14%
- cytochrome P450 inhibition 2C9 (CYP2C9): < 25% inh at 10 uM
- inhibition at 10 µM (Serotonin 5-HT2A): 50%
- IC50 (CYP2C19): 10 µM
- agonistic effect at 5-HT2BR (5-HT2B receptors): 3.6 % inhibition
- inhibition at 10 µM (Chemokine CCR1): -6%
- IC50 (CYP1A2): 12 µM
- inhibition at 0.01 µM ([2]; 10 nM): -2%
- inhibition at 0.1 µM ([2]; 0.1 μM): 9%
- inhibition at 1 µM ([2]; 1 μM): 48%
- inhibition at 10 µM [2]: 78%
- inhibition at 10 µM ([2]; additional batch): 85%
- IC50 (Adrenergic β1): 0.3 µM
- Ki (Adrenergic β1): 0.17 µM
- inhibition at 0.01 µM (Adrenergic β1; read-out: %inh, 10 nM): -3%
- inhibition at 0.1 µM (Adrenergic β1; read-out: %inh, 0.1 μM): 27%
- inhibition at 1 µM (Adrenergic β1; read-out: %inh, 1 μM): 75%
- inhibition at 10 µM (Adrenergic β1; [4]): 102%
- IC50 (Serotonin 5-HT2C): 1.58 µM
- Ki (Serotonin 5-HT2C): 0.83 µM
- inhibition at 0.01 µM (Serotonin 5-HT2C; read-out: %inh, 10 nM, additional batch): -5%
- inhibition at 0.1 µM (Serotonin 5-HT2C; read-out: %inh, 0.1 μM): -6%
- inhibition at 1 µM (Serotonin 5-HT2C; read-out: %inh, 1 μM): 32%
- inhibition at 10 µM (Serotonin 5-HT2C; read-out: %inh, 10 μM): 94%
- inhibition at 10 µM (Serotonin 5-HT2C; [4]): 93%
- IC50 (Adrenergic α2B): 10.1 µM
- Ki (Adrenergic α2B): 4.61 µM
- inhibition at 0.1 µM (Adrenergic α2B; read-out: %inh, 0.1 μM): 1%
- inhibition at 1 µM (Adrenergic α2B; read-out: %inh, 1 μM): -4%
- inhibition at 10 µM (Adrenergic α2B; read-out: %inh, 10 μM): 43%
- inhibition at 10 µM (Adrenergic α2B; [4]): 53%
- inhibition at 100 µM (Adrenergic α2B; read-out: %inh, 100 μM): 108%
- inhibition at 10 µM [3]: 16%
- IC50 (CYP3A4): 57 µM
- inhibition at 10 µM (Adrenergic α1B): 29%
- inhibition at 10 µM (Dopamine D1): 27%
